# In US20260248788A1, “NEW COMPOUNDS AND TREATMENT OF RENAL CELL CARCINOMA” (TRUSTLIFE THERAPEUTICS INC., priority 2023, published 2026):
# Entries after “also recorded” stand apart in the source; their conditions may differ.
# Key:
# Format in all cases: cell-based, human
# [1] = test system: BUB1B; assay: Western blot of BUB1B in Caki-1 cells treated with TG-101209 derivatives; conditions: for expression levels of BUB1B (summary statement): concentration not given; for expression levels of BUB1B (Western blot): Caki-1 cells, 5 μM of target drug, 1 day (FIG. 41, 56)
# Experimental: (§1) Cell culture 2: Caki-1 was purchased from CLS Cell Lines Service (Germany). The cells were maintained in McCoy's 5A (modified) medium (16600082, Thermo Fisher Scientific, USA) and supplemented with 10% fetal bovine serum (FBS, F7524, Sigma-Aldrich), 1% Penicillin/Streptomycin (P4333, Sigma-Aldrich).
# The target drugs developed as alternatives to TG-101209, were dissolved in 0.1% DMSO (41639, Sigma-Aldrich). Caki-1 cells from cell culture 2 were seeded in a 6-well plate at 3×10^5 cells per well. […]
# The cells were washed with PBS solution and then lysed with CelLytic M (C2978, Sigma-Aldrich) lysis buffer containing protease inhibitors (11836170001, Roche). The cell lysates were centrifuged at 12 000 rpm for 10 min and supernatants were collected. Protein Assay Dye Reagent (5000006, Bio-Rad) was used for the determination of protein concentration. The absorbance of the proteins was measured spectrophotometrically at 595 nm by a microplate reader (Hidex Sense Beta Plus). Protein electrophoresis was performed using Mini-PROTEAN® TGX™ Precast Gels (4561086, Bio-Rad) and then the separated proteins were transferred to a Trans-Blot Turbo Mini 0.2 μm PVDF Transfer Packs membrane (1704158, Bio-Rad) by using Trans-Blot® Turbo™ Transfer System (Bio-Rad). The membrane was blocked with 5% skim milk for 30 min at 4° C. with gentle rocking. After blocking, the membrane was treated with primary antibodies: Anti-BUB1B (HPA008419, Human Protein Atlas, Sweden) and Anti-Beta actin (ab8227, Abcam) as a loading control overnight at 4° C. on a rocking platform. After the treatment of primary antibodies, the membrane was washed three times with TBS-T buffer (A09-7500-100, Medicago). Then, Goat anti-Rabbit IgG-HRP (ab205718, Abcam) was treated as the secondary antibody for 30 min at 4° C. with gentle rocking.
# [2] = test system: Caki-1 cells; assay: MTT cell viability assay; conditions: for cell viability of treated cells (summary statement): concentration not given; for reduction in cell viability (MTT) / effect on cell viability (MTT): 1 day
# Experimental: as §1
# The cytotoxic effects of the TG-101209 and its alternatives on the Caki-1 cells were tested by MTT (Thiazolyl Blue Tetrazolium Bromide) method. 1.5×10^4 cells were seeded per well in a 96-well plate in 100 μL growth media. […] After the incubation period, 5 mg/ml MTT (M2128, Sigma-Aldrich) solution in PBS (10 μL) was added to each well. After 1 hour, the MTT solution and all media were removed from the wells. 100 μl of DMSO was added and mixed to dissolve the formazan crystals. Cell viability was analysed by measuring the absorbance of the dissolved formazan at a wavelength of 570 nm with a microplate reader (Hidex Sense Beta Plus).
# [3] = test system: Caki-1 cells; assay: LDH cytotoxicity assay; conditions: 1 day; for cytotoxicity (LDH assay): Caki-1, 10 μM; for Ranking, Cytotoxicity (%): top five, LDH assay, 10 μM, rank 1 = highest
# Experimental: as §1
# Lactate dehydrogenase (LDH) assay was performed with LDH Assay Kit (ab65393). […] 20 μl of media was analysed with LDH Assay Kit as per manufacturer's instruction.
smiles,measurement,setting,value
"COc1cc(Nc2ncc(C)c(Nc3ccc(N4CCN(C)CC4)cc3)n2)cc(OC)c1OC [Compound M119, 5-methyl-N4-(4-(4-methylpiperazin-1-yl)phenyl)-N2-(3,4,5-trimethoxyphenyl)pyrimidine-2,4-diamine]",expression levels of BUB1B (summary statement),[1],reduction of the expression levels of BUB1B
same,cell viability of treated cells (summary statement),[2],especially low cell viability; also recorded: significantly reduced cell viability
"COc1cc(Nc2ncc(C)c(Nc3cccc(S(=O)(=O)NC(C)(C)C)c3)n2)cc(OC)c1 [Compound M79, N-(tert-butyl)-3-((2-((3,5-dimethoxyphenyl)amino)-5-methylpyrimidin-4-yl)amino)benzenesulfonamide]",expression levels of BUB1B (Western blot),[1],significantly lower the expression levels of BUB1B
same,expression levels of BUB1B (summary statement),[1],reduction of the expression levels of BUB1B
same,cell viability of treated cells (summary statement),[2],especially low cell viability; also recorded: significantly reduced cell viability
"Cc1ccc(NC(=O)c2ccc(Nc3ncc(C)c(Nc4cccc(S(=O)(=O)NC(C)(C)C)c4)n3)cc2)cc1S(N)(=O)=O [Compound M101Q, 4-((4-((3-(N-(tert-butyl)sulfamoyl)phenyl)amino)-5-methylpyrimidin-2-yl)amino)-N-(4-methyl-3-sulfamoylphenyl)benzamide]",cytotoxicity (LDH assay),[3]; second batch,greatest cytotoxicity
"Cc1cnc(Nc2ccc(C(=O)Nc3ccc4ncccc4c3)cc2)nc1Nc1cccc(S(=O)(=O)NC(C)(C)C)c1 [Compound M101H, 4-((4-((3-(N-(tert-butyl)sulfamoyl)phenyl)amino)-5-methylpyrimidin-2-yl)amino)-N-(quinolin-6-yl)benzamide]",reduction in cell viability (MTT),"[2]; Caki-1, 5 μM, first batch",the greatest
same,cell viability of treated cells (summary statement),[2],particularly low cell viability; also recorded: significantly reduced cell viability
"COc1cc(Nc2ncc(C)c(Nc3cccc(S(=O)(=O)N4CCOCC4)c3)n2)cc(OC)c1OC [Compound M115, 5-methyl-N4-(3-(morpholinosulfonyl)phenyl)-N2-(3,4,5-trimethoxyphenyl)pyrimidine-2,4-diamine]",expression levels of BUB1B (summary statement),[1],reduction of the expression levels of BUB1B
same,cell viability of treated cells (summary statement),[2],especially low cell viability; also recorded: reduced cell viability
"Cc1cn(-c2cc(Nc3ncc(C)c(Nc4cccc(S(=O)(=O)NC(C)(C)C)c4)n3)cc(C(F)(F)F)c2)cn1 [Compound M64, N-(tert-butyl)-3-((5-methyl-2-((3-(4-methyl-1H-imidazol-1-yl)-5-(trifluoromethyl)phenyl)amino)pyrimidin-4-yl)amino)benzenesulfonamide]",expression levels of BUB1B (Western blot),[1],significantly lower the expression levels of BUB1B
"Cc1cnc(Nc2ccc(C(=O)Nc3cccc(S(=O)(=O)N4CCOCC4)c3)cc2)nc1Nc1cccc(S(=O)(=O)NC(C)(C)C)c1 [Compound M101F, 4-((4-((3-(N-(tert-butyl)sulfamoyl)phenyl)amino)-5-methylpyrimidin-2-yl)amino)-N-(3-(morpholinosulfonyl)phenyl)benzamide]",reduction in cell viability (MTT),"[2]; Caki-1, 5 μM, first batch",the greatest
same,cell viability of treated cells (summary statement),[2],particularly low cell viability; also recorded: significantly reduced cell viability
same,cytotoxicity (LDH assay),[3]; first batch,exhibited cytotoxicity
"COc1cc(NC(=O)c2ccc(Nc3ncc(C)c(Nc4cccc(S(=O)(=O)NC(C)(C)C)c4)n3)cc2)cc(OC)c1 [Compound M101A, 4-((4-((3-(N-(tert-butyl)sulfamoyl)phenyl)amino)-5-methylpyrimidin-2-yl)amino)-N-(3,5-dimethoxyphenyl)benzamide]",reduction in cell viability (MTT),"[2]; Caki-1, 5 μM, first batch",the greatest
same,effect on cell viability (MTT),"[2]; Caki-1, 10 μM, first batch",most profound effect
same,cell viability of treated cells (summary statement),[2],particularly low cell viability; also recorded: significantly reduced cell viability
same,cytotoxicity (LDH assay),[3]; first batch,exhibited cytotoxicity
same,"Ranking, Cytotoxicity (%)",[3],5
"Cc1cnc(Nc2ccc(N3CCN(C)CC3)cc2)nc1Nc1cccc(S(=O)(=O)Nc2ccccc2)c1 [Compound M3, 3-((5-methyl-2-((4-(4-methylpiperazin-1-yl)phenyl)amino)pyrimidin-4-yl)amino)-N-phenylbenzenesulfonamide]",expression levels of BUB1B (Western blot),[1],significantly lower the expression levels of BUB1B
"Cc1cnc(Nc2ccc(C(=O)Nc3cccc(S(=O)(=O)NC(C)(C)C)c3)cc2)nc1Nc1cccc(S(=O)(=O)NC(C)(C)C)c1 [Compound M101D, N-(3-(N-(tert-butyl)sulfamoyl)phenyl)-4-((4-((3-(N-(tert-butyl)sulfamoyl)phenyl)amino)-5-methylpyrimidin-2-yl)amino)benzamide]",reduction in cell viability (MTT),"[2]; Caki-1, 5 μM, first batch",the greatest
same,effect on cell viability (MTT),"[2]; Caki-1, 10 μM, first batch",greatest reduction of cell viability
same,cell viability of treated cells (summary statement),[2],particularly low cell viability; also recorded: significantly reduced cell viability
same,cytotoxicity (LDH assay),[3]; first batch,highest cytotoxicity
same,"Ranking, Cytotoxicity (%)",[3],1
"Cc1cnc(Nc2ccc(C(=O)Nc3ccc(OCCCN4CCOCC4)cc3)cc2)nc1Nc1cccc(S(=O)(=O)NC(C)(C)C)c1 [Compound M101G, 4-((4-((3-(N-(tert-butyl)sulfamoyl)phenyl)amino)-5-methylpyrimidin-2-yl)amino)-N-(4-(3-morpholinopropoxy)phenyl)benzamide]",reduction in cell viability (MTT),"[2]; Caki-1, 5 μM, first batch",the greatest
same,cell viability of treated cells (summary statement),[2],particularly low cell viability; also recorded: significantly reduced cell viability
"Cc1cnc(Nc2ccc(C(=O)Nc3cccc(Br)c3)cc2)nc1Nc1cccc(S(=O)(=O)NC(C)(C)C)c1 [Compound M101B, N-(3-bromophenyl)-4-((4-((3-(N-(tert-butyl)sulfamoyl)phenyl)amino)-5-methylpyrimidin-2-yl)amino)benzamide]",reduction in cell viability (MTT),"[2]; Caki-1, 5 μM, first batch",the greatest
same,cell viability of treated cells (summary statement),[2],particularly low cell viability; also recorded: significantly reduced cell viability
same,cytotoxicity (LDH assay),[3]; first batch,exhibited cytotoxicity
same,"Ranking, Cytotoxicity (%)",[3],3
"Cc1cnc(Nc2ccc(C(=O)Nc3ccc(N4CCN(C)CC4)cc3)cc2)nc1Nc1ccc(N2CCN(C)CC2)cc1 [ME3, 4-((5-methyl-4-((4-(4-methylpiperazin-1-yl)phenyl)amino)pyrimidin-2-yl)amino)-N-(4-(4-methylpiperazin-1-yl)phenyl)benzamide]",reduction in cell viability (MTT),"[2]; Caki-1, 10 μM, second batch",the greatest
same,cell viability of treated cells (summary statement),[2],particularly low cell viability; also recorded: significantly reduced cell viability
"Cc1cnc(Nc2ccc(C(=O)Nc3ccc(Oc4ccc(Cl)cc4)nc3)cc2)nc1Nc1cccc(S(=O)(=O)NC(C)(C)C)c1 [Compound M101V, 4-((4-((3-(N-(tert-butyl)sulfamoyl)phenyl)amino)-5-methylpyrimidin-2-yl)amino)-N-(6-(4-chlorophenoxy)pyridin-3-yl)benzamide]",cytotoxicity (LDH assay),[3]; second batch,greatest cytotoxicity
